Where two headings read alike, the source gives them in different places.
How the values were obtained:
Assay type in all cases: cell-based
[1] = molecular target: T1, CXCR4 receptor (Homo sapiens, UniProt P61073); assay: Functional FLIPR assay (block of SDF-1 alpha induced [Ca2+]i change); settings: HEK-293 cells, human CXCR4 BacMam and Gqi5 BacMam, read-out: Functional assay (pIC50) (converted)
T1 construct: expressed in transfected cells; host or cells: HEK-293 cells (stably expressing human macrophage scavenger receptor) transduced with human CXCR4 BacMam and Gqi5 BacMam
Method: Human embryonic kidney (HEK-293) cells were maintained and harvested as described above. Cells were plated in 96-well, black clear bottom, poly-lysine coated plates at a concentration of 40,000 cells per well in a final volume of 100 ul containing human CXCR4BacMam (MOI=25) and Gqi5 BacMam (MOI=12.5). The cells were incubated at 37° C., 5% CO2, 95% humidity for 24 h to allow for protein expression.
After the required incubation time the cells were washed once with 50 ul of fresh serum-free DMEM/F12 media containing probenicid. 50 ul of dye solution was then added to the cells (Calcium Plus Assay Kit Dye; Molecular Devices) was dissolved in 200 ml of the above probenicid/BSA containing media and incubated for 1 h. Cell plates were transferred to a Fluorometric Imaging Plate Reader (FLIPR). Upon addition the effect of the compounds on the change in [Ca^2+]i was examined to determine if the compounds were agonists or antagonists (ability to block SDF-1 alpha activity) at the CXCR4 receptor. IC50 values are determined and pKb values are calculated using the Leff and Dougall equation: KB═IC50/((2+([agonist]/EC50̂b)̂1/b−1) Where IC50 is that defined by the antagonist concentration-response curve [agonist)] is the EC80 concentration of agonist used EC50 is that defined by the agonist concentration-response curve b is the slope of the agonist concentration-response curve.

[2] = test system: HIV-1 gp160 (HXB2 strain) mediated cell/cell fusion; assay: Cell/cell fusion assay (HOS hCXCR4/hCCR5/hCD4/pHIV-LTR-luciferase cells with HEK-293 cells expressing HIV-1 tat, rev, gp160), luciferase readout; settings: Homo sapiens, HEK293, 24 h, read-out: Fusion assay (pIC50) (converted)
Excerpt: The complete coding sequences of HIV-1 tat (GenBank Accession No. X07861) and rev (GenBank Accession No. M34378) were cloned into pcDNA3.1 expression vectors containing G418 and hygromycin resistance genes, respectively. The complete coding sequence of the HIV-1 (HXB2 strain) gp160 envelope gene (nucleotide bases 6225-8795 of GenBank Accession No. K03455) was cloned into plasmid pCRII-TOPO. The three HIV genes were additionally inserted into the baculovirus shuttle vector, pFastBacMam1, under the transcriptional control of the CMV promoter. A construction of the pHIV-1 LTR containing mutated NFkB sequences linked to the luciferase reporter gene was prepared by digesting pcDNA3.1, containing the G418 resistance gene, with Nru I and Bam HI to remove the CMV promoter. LTR-luc was then cloned into the Nru I/Bam HI sites of the plasmid vector. Plasmid preparations were performed after the plasmids were amplified in Escherichia coli strain DH5-alpha. The fidelity of the inserted sequences was confirmed by double-strand nucleotide sequencing using an ABI Prism Model 377 automated sequencer.
Recombinant BacMam baculoviruses were constructed from pFastBacMam shuttle plasmids by using the bacterial cell-based Bac-to-Bac system. Viruses were propagated in Sf9 (Spodoptera frugiperda) cells cultured in Hink's TNM-FH Insect media supplemented with 10% (v/v) fetal bovine serum and 0.1% (v/v) pluronic F-68 according to established protocols.
Human osteosarcoma (HOS) cells that naturally express human CXCR4 were transfected with human CCR5, human CD4 and the pHIV-LTR-luciferase plasmid using FuGENE 6 transfection reagent. Single cells were isolated and grown under selection condition in order to generate a stable HOS (hCXCR4/hCCR5/hCD4/pHIV-LTR-luciferase) clonal cell line. The cells were maintained in Dulbeccos modified Eagles media supplemented with 10% fetal calf serum (FCS), G418 (400 ug/ml), puromycin (1 ug/ml), mycophenolic acid (40 ug/ml), xanthine (250 ug/ml) and hypoxanthine (13.5 ug/ml) to maintain a selection pressure for cells expressing the LTR-luciferase, hCCR5 and hCD4, respectively. Human embryonic kidney (HEK-293) cells stably transfected to express the human macrophage scavenging receptor (Class A, type 1; GenBank Accession No. D90187), were maintained in DMEM/F-12 media (1:1) supplemented with 10% FCS and 1.5 ug/ml puromycin. The expression of this receptor by the HEK-293 cells enhances their ability to stick to tissue culture treated plasticware.
HEK-293 cells were harvested using enzyme-free cell dissociation buffer. The cells were resuspended in DMEM/F-12 media supplemented with 10% FCS and 1.5 ug/ml and counted. Tranductions were performed by direct addition of BacMam baculovirus containing insect cell media to cells. The cells were simultaneously transduced with BacMam baculovirus expressing HIV-1 tat, HIV-1 rev and HIV-1 gp160 (from the HXB2 HIV strain). Routinely an MOI of 10 of each virus was added to the media containing the cells. 2 mM butyric acid was also added to the cells at this stage to increase protein expression in transduced cells. The cells were subsequently mixed and seeded into a flask at 30 million cells per T225. The cells were incubated at 37° C., 5% CO2, 95% humidity for 24 h to allow for protein expression.
HEK and HOS cells were harvested in DMEM/F-12 media containing 2% FCS and DMEM media containing 2% FCS, respectively, with no selection agents added. Compounds were plated as 1 ul spots in 100% DMSO on a 96-well CulturPlate plates. HOS cells (50 ul) were added first to the wells, followed immediately by the HEK cells (50 ul). The final concentration of each cell type was 20,000 cells per well. Following these additions, the cells were returned to a tissue culture incubator (37° C.; 5% CO2/95% air) for an additional 24 h.
Following the 24 h incubation, total cellular luciferase activity was measured using the LucLite Plus assay kit (Packard, Meridien, Conn.). […]

[3] = Compound cytotoxicity in HOS cells in the absence of virus (CellTiter-Glo); settings: human, no virus, read-out: Cytotox (pIC50) (converted)
Method: Compounds were profiled against two HIV-1 viruses, the M-tropic (CCR5 utilizing) Ba-L strain and the T-tropic (CXCR4 utilizing) IIIB strain. Both viruses were propagated in human peripheral blood lymphocytes. Compounds were tested for there ability to block infection of the HOS cell line (expressing hCXCR4/hCCR5/hCD4/pHIV-LTR-luciferase) by either HIV-1 Ba-L or HIV-1 IIIB. Compound cytotoxicity was also examined in the absence of virus addition.
HOS cells (expressing hCXCR4/hCCR5/hCD4/pHIV-LTR-luciferase) were harvested and diluted in Dulbeccos modified Eagles media supplemented with 2% FCS and non-essential amino acid to a concentration of 60,000 cells/ml. The cells were plated into 96-well plates (100 ul per well) and the plates were placed in a tissue culture incubator (37° C.; 5% CO2/95% air) for a period of 24 h.
Subsequently, 50 ul of the desired drug solution (4 times the final concentration) was added to each well and the plates were returned to the tissue culture incubator (37° C.; 5% CO2/95% air) for 1 h. Following this incubation 50 ul of diluted virus was added to each well (approximately 2 million RLU per well of virus). The plates were returned to the tissue culture incubator (37° C.; 5% CO2/95% air) and were incubated for a further 96 h.
Following this incubation the endpoint for the virally infected cultures was quantified following addition of Steady-Glo Luciferase assay system reagent (Promega, Madison, Wis.). Cell viability or non-infected cultures was measured using a CellTiter-Glo luminescent cell viability assay system (Promega, Madison, Wis.). All luminescent readouts are performed on a Topcount luminescence detector (Packard, Meridien, Conn.).

[4] = test system: HIV-1 IIIB; assay: HOS HIV-1 infectivity assay
How it was run: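 HOS hCXCR4/hCCR5/hCD4/pHIV-LTR-luc cells, DMEM 2% FCS, 24 h preculture; cpd 1 h pre-virus; HIV-1 (PBL-grown) ~2 million RLU/well; 96 h, 37 °C. Readout: Steady-Glo luciferase (infected), CellTiter-Glo (no virus).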

[5] = Human immunodeficiency virus 1, IIIB, as determined by the infectivity assay, strain not stated in Table 2, read-out: Activity Level
[6] = Human immunodeficiency virus 1, T-tropic (CXCR4 utilizing) IIIB strain, HOS cells, 96 h, read-out: HOS (3B)

T1 sequence (P61073 whole entry): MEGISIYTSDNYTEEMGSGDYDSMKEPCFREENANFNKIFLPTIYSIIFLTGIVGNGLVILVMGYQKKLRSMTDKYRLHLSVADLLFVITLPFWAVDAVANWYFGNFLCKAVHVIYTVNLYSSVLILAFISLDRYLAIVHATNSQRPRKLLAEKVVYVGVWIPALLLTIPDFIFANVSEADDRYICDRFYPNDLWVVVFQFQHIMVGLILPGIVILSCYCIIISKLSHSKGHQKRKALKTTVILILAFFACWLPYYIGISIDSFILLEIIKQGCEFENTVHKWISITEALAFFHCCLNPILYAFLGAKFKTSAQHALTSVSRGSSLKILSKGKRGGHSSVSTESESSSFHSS

| SMILES | IC50 [1] [nM] | IC50 [2] [nM] | IC50 at 96 h [3] [nM] | IC50 [4, 5] [µM] | IC50 [4, 6] [µM] | IC50 ([4]; Human immunodeficiency virus 1, IIIB, HOS, 96 h, read-out: HOS (3B) (uM)) [µM] | IC50 ([4]; Human immunodeficiency virus 1, IIIB, read-out: Activity Level) [µM] |
| --- | --- | --- | --- | --- | --- | --- | --- |
| CN(Cc1nc2ccccc2n1CC1CCNCC1)C1CCCc2cccnc21 (stereo not shown) [Example 6, N-Methyl-N-{[1-(4-piperidinylmethyl)-1H-benzimidazol-2-yl]methyl}-5,6,7,8-tetrahydro-8-quinolinamine] | 282 | 240 | > 100000 | < 0.1 | 0.09 | – | – |
| CN(C)CCCCCn1c(CN(C)C2CCCc3cccnc32)nc2ccccc21 (stereo not shown) [Example 17, N-({1-[5-(Dimethylamino)pentyl]-1H-benzimidazol-2-yl}methyl)-N-methyl-5,6,7,8-tetrahydro-8-quinolinamine] | 204 | 324 | > 100000 | 0.1 to 0.5 | 0.251 | – | – |
| CN(Cc1nc2ccccc2n1CCN)C1CCCc2cccnc21 (stereo not shown) [Example 18, N-{[1-(2-Aminoethyl)-1H-benzimidazol-2-yl]methyl}-N-methyl-5,6,7,8-tetrahydro-8-quinolinamine] | 166 | 316 | > 100000 | – | – | – | – |
| CN1CC(Cn2c(CN(C)C3CCCc4cccnc43)nc3ccccc32)C1 (stereo not shown) [Example 10e, N-Methyl-N-({1-[(1-methyl-3-azetidinyl)methyl]-1H-benzimidazol-2-yl}methyl)-5,6,7,8-tetrahydro-8-quinolinamine] | 117 | 91.2 | > 100000 | < 0.1 | 0.066 | – | – |
| CN1CCC(n2c(CN(C)C3CCCc4cccnc43)nc3ccccc32)CC1 (stereo not shown) [Example 11i, N-Methyl-N-{[1-(1-methyl-4-piperidinyl)-1H-benzimidazol-2-yl]methyl}-5,6,7,8-tetrahydro-8-quinolinamine] | 37.2 | 79.4 | > 100000 | – | – | 0.082 | < 0.1 |
| CN(Cc1nc2ccccc2n1Cc1ccc(CN)cc1)C1CCCc2cccnc21 (stereo not shown) [Example 14, N-[(1-{[4-(Aminomethyl)phenyl]methyl}-1H-benzimidazol-2-yl)methyl]-N-methyl-5,6,7,8-tetrahydro-8-quinolinamine] | 282 | 708 | > 100000 | 0.5 to 10 | 0.985 | – | – |
| CN(Cc1nc2ccccc2n1CCN1CCCCC1)C1CCCc2cccnc21 (stereo not shown) [Example 4, N-Methyl-N-({1-[2-(1-piperidinyl)ethyl]-1H-benzimidazol-2-yl}methyl)-5,6,7,8-tetrahydro-8-quinolinamine] | 60.3 | 138 | > 100000 | 0.1 to 0.5 | 0.156 | – | – |
| CN(C)CCCn1c(CN(C)C2CCCc3cccnc32)nc2ccccc21 (stereo not shown) [Example 15c, N-({1-[3-(Dimethylamino)propyl]-1H-benzimidazol-2-yl}methyl)-N-methyl-5,6,7,8-tetrahydro-8-quinolinamine] | 17 | 16.6 | > 100000 | < 0.1 | 0.023 | – | – |
| NCCCn1c(CNC2CCCc3cccnc32)nc2ccccc21 (stereo not shown) [Example 19, N-{[1-(3-Aminopropyl)-1H-benzimidazol-2-yl]methyl}-5,6,7,8-tetrahydro-8-quinolinamine] | 234 | 513 | > 100000 | < 0.1 | 0.09 | – | – |
| CN(Cc1nc2ccccc2n1Cc1ccc(CNCc2ccccn2)cc1)C1CCCc2cccnc21 (stereo not shown) [Example 12, N-Methyl-N-({1-[(4-{[(2-pyridinylmethyl)amino]methyl}phenyl)methyl]-1H-benzimidazol-2-yl}methyl)-5,6,7,8-tetrahydro-8-quinolinamine] | 224 | 575 | > 100000 | 0.1 to 0.5 | 0.376 | – | – |
| CN(Cc1nc2ccccc2n1CCCCN)C1CCCc2cccnc21 (stereo not shown) [Example 13, N-{[1-(4-Aminobutyl)-1H-benzimidazol-2-yl]methyl}-N-methyl-5,6,7,8-tetrahydro-8-quinolinamine] | 302 | 126 | > 100000 | 0.1 to 0.5 | 0.131 | – | – |
| CCN(Cc1nc2ccccc2n1CCCN)C1CCCc2cccnc21 (stereo not shown) [Example 20, N-{[1-(3-Aminopropyl)-1H-benzimidazol-2-yl]methyl}-N-ethyl-5,6,7,8-tetrahydro-8-quinolinamine] | 28.2 | 56.2 | > 100000 | < 0.1 | 0.021 | – | – |

Source: patent publication US20080096861A1, “Chemical Compounds” (SMITHKLINE BEECHAM CORPORATION, priority 2004, published 2008)
